From article PMC9283751 (Clinical and Translational Science, 2022)
Like-named read-outs stand apart in the source and are kept apart here. Blank lines part the entries; values can stand above or below the molecule they belong to.

How the values were obtained:
[1] = type: in vivo, human
[2] = type: in vivo, human; remark: listed apart in the source
[3] = cited from earlier work
[4] = cited from earlier work; remark: listed apart in the source
[5] = with diltiazem; cited from earlier work
[6] = reference group of healthy subjects, abbreviated dosing schedule; cited from earlier work
[7] = Calcineurin inhibitor trough levels in transplant recipients; type: in vivo, human; details: mean [SD]
[8] = transplant recipients on tacrolimus, reference healthy subjects on apixaban + tacrolimus
[9] = transplant recipients on cyclosporine compared to healthy subjects on apixaban alone
[10] = transplant recipients on cyclosporine, reference healthy subjects on apixaban + cyclosporine

increase in plasma concentrations and total body exposures ([1]; SOTRs on calcineurin inhibitors compared to healthy subjects on apixaban alone): 2 to 3 fold
AUC(0-inf) ([1]; human, plasma, oral, 10 mg): 5210 ng·h/mL
Cmax ([1]; human, plasma, oral, 10 mg): 327 ng/mL
Tmax ([1]; human, plasma, oral, 10 mg): 1.4 h
AUC(0-inf) ([1]; human, plasma, po, 10 mg): 4310 ng·h/mL
AUC(0-t) ([1]; human, plasma, po, 10 mg): 4240 ng·h/mL
Cmax ([1]; human, plasma, po, 10 mg): 353 ng/mL
peak level ([1]; one participant (kidney 1) on tacrolimus): > 500 ng/mL
mean AUCs higher than the healthy participants ([1]; tacrolimus group, patients with optimal renal function): 1.8 fold
Tmax ([1]; tacrolimus transplant cohort, comparison group to patients that weighed <60 kg): 2.6 h
mean Cmax ([1]; tacrolimus transplant cohort, patients that weighed <60 kg): 483 ng/mL
apixaban CL/F ([1]; tacrolimus transplant cohort, patients with creatinine levels of greater than 133 μmol/L): 1.9 L/h
GMR for apixaban AUC0-inf ([1]; transplant recipients on tacrolimus compared to healthy subjects on apixaban alone): 224%
GMR for apixaban AUC0-inf [1, 8]: 285%
GMR for apixaban AUC0-tlast [1, 8]: 309%
AUC(0-inf) ([2]; human, plasma, po, 10 mg): 5390 ng·h/mL
AUC(0-t) ([2]; human, plasma, po, 10 mg): 4990 ng·h/mL
GMR for apixaban AUC0-inf [2, 9]: 280%
GMR for apixaban Cmax [2, 9]: 256%
GMR for apixaban AUC0-inf [2, 10]: 229%
GMR for apixaban Cmax [2, 10]: 179%
SMILES: COc1ccc(-n2nc(C(N)=O)c3c2C(=O)N(c2ccc(N4CCCCC4=O)cc2)CC3)cc1 [apixaban]
solubility classification [3]: high solubility
apixaban dose removed by the kidneys [4]: 27%
increase in apixaban AUC [5]: 1.4 fold
increase in apixaban Cmax [5]: 1.3 fold

mean trough level ([7]; after apixaban administration): 8.0 [2.7] ng/ml
mean trough level ([7]; before apixaban administration (steady-state)): 7.4 (1.5) ng/ml
SMILES: C=CC[C@@H]1/C=C(\C)C[C@H](C)C[C@H](OC)[C@H]2O[C@@](O)(C(=O)C(=O)N3CCCC[C@H]3C(=O)O[C@H](/C(C)=C/[C@@H]3CC[C@@H](O)[C@H](OC)C3)[C@H](C)[C@@H](O)CC1=O)[C@H](C)C[C@@H]2OC [tacrolimus]
trough level [6]: 3.8 (2.3) ng/ml
